According to patent US8188143B2, “Pharmaceutical composition useful as acetylcholinesterase inhibitors” (Council of Scientific and Industrial Research, priority 2006, dated 2012):
Entries after “also recorded” stand apart in the source; their conditions may differ. Like-named read-outs stand apart in the source and are kept apart here.

Assays:
[1] = system: Scopolamine induced deficit in passive avoidance test in mice; assay: Single trial passive avoidance test, scopolamine induced deficit (in vivo); settings: for In Vivo (passive avoidance test, significance of TLT increase): scopolamine induced deficit, oral for 3 days; for In Vivo (passive avoidance test, significance of TLT increase) / effectiveness in passive avoidance test (in vivo), in words: mice; for TLT on 2nd trial as compared to 1st trial after scopolamine: mice pretreated po x 3 days (100 mg/kg FIG. 1a; 50 mg/kg FIG. 1b), scopolamine 5 min prior to 1st trial; for effectiveness in passive avoidance test (in vivo), in words: scopolamine induced memory deficit
Description: Single trial passive avoidance is widely used as experimental test to assess learning memory functions in rodents. Scopolamine induced impairment in passive avoidance (in vivo) and inhibition of acetylcholinesterase (in vitro) in rodents are commonly employed and screening test to predict potential of an acetylcholinesterase inhibitor as cognitive enhancer (anti-dementic) drug.
Passive Avoidance Test (In Vivo):
The study was conducted in adult Swiss male mice of 3-4 months (wt. 20-25 g) were kept in standard housing condition with 12 h light and dark cycle. The food and water were available ad libitum.
The mice were subjected to single trial passive avoidance test as described by Brioni.
The passive avoidance test was studied by a computerized shuttle box (Columbus Instruments, Ohio, USA) provided with a software program PACS 30. The shuttle box is comprised of two compartments. An automated door was used to isolate the compartments. After an exploration period of 30 s for acclimatization the animal was subjected to a trial of 270 seconds. Each mouse was placed in the bright compartment and on transfer into the dark compartment it was given an electric shock (0.5 mA for 5 s) through floor grid. The transfer of mice from the bright to dark compartment was recorded as transfer latency time (TLT) in seconds. TLT was recorded in control and treated groups (1st Trial, acquisition) and then after 24 h (2nd Trial, retention). An increase in the TLT on 2nd Trial (retention) as compared to 1st Trial (acquisition) was taken as the criterion for successful learning and memory (cognitive activity).
Scopolamine Induced Deficit (Dementia)
Scopolamine, a muscarinic antagonist known to produce impairment in cognitive functions (dementia) in human as well as in experimental animals, was used to produce deficit (no significant increase on 2nd trial) in passive avoidance learning. Scopolamine was administered 5 min prior to 1st trial. Reversal of scopolamine induced deficit i.e. significant increase in 2nd trial by test substance indicates potential anti-dementia activity. […].
The test substance Columbianetin was administered orally in dose of 100 m/kg (1% aqueous suspension in gum acacia) for 3 days. The treated animals were subjected to 1st trial after 60 min of 3rd dose of test substance. Scopolamine was administered 5 min prior to 1st trial in test group.
The control group received 1 ml/kg of vehicle (1% aqueous suspension in gum acacia) orally for 3 days. Among the control mice half (n=5) received scopolamine 5 min prior to 1st trial (Control—dementia) and the remaining half were subjected to passive avoidance test (Control—trained).
Level of p value<0.05 indicates statistically significant difference.
Mean values and standard error (S.E.) of mean were calculated for TLT and specific activity of AChE in the different regions of brain samples of each group. The significance of difference between the values of AChE activity and TLT of two groups was determined by one-way ANOVA test that followed by Dunnett's test.

[2] = target: T1, Acetylcholinesterase (AChE) (Rattus norvegicus, UniProt P37136); assay: Acetylcholinesterase (AChE) assay in brain (in vitro), Ellman method; assay type: biochemical
T1 construct: Aliquots of this supernatant was diluted in the ratio of 1:10 and used as a source of enzyme for the assay; from tissue; host or cells: whole brain of adult male SD rats; 100,000 x g supernatant of a 10% homogenate with Triton X-100
T1 sequence (P37136 32-614): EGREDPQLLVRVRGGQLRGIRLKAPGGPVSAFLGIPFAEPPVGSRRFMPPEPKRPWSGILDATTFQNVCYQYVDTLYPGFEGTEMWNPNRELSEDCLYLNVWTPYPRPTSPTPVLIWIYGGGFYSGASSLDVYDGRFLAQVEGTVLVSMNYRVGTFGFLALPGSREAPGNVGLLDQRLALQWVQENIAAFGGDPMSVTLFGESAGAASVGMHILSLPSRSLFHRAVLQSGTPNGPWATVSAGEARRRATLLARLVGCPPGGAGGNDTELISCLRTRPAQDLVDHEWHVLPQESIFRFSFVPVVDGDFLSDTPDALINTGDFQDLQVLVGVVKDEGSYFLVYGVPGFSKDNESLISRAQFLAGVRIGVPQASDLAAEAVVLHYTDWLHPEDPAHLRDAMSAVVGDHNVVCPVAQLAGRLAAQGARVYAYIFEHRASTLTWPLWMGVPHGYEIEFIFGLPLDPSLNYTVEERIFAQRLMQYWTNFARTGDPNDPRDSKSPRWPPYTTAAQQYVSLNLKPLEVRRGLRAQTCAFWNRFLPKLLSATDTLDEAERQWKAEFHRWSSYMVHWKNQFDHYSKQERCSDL
Description: Acetylcholinesterase (AChE) Assay in Brain (In Vitro)
The study was conducted in adult SD male rats (200-250 g). The rats were perfused under mild ether anesthesia through heart with ice cooled normal saline (0.9% NaCl) to reduce blood-borne cholinesterase from the brain. After perfusion the whole brain was taken out. A 10% (w/v) homogenate of brain was prepared first by homogenizing in an Ultra-Turrax T25 homogenizer at a speed of 9500 rpm thrice giving intervals for few seconds in between the runs, with sodium phosphate buffer (30 mmol/lit, pH 7.0). Sodium phosphate buffer was taken in a volume half to the final volume required for 10% homogenate.
1% Triton X-100 (1% w/v in 30 mmol/lit. sodium phosphate buffer, pH 7.0) is then added in a volume to make the final volume for 10% homogenate, slowly while stirring the homogenate on ice. The homogenate was centrifuged at 100,000×g at 4° C. in a Beckman Ultracentrifuge (LE 80) using a fixed angle rotor (80 Ti) for 60 min. Supernatant was collected and stored at 4° C. Aliquots of this supernatant was diluted in the ratio of 1:10 and used as a source of enzyme for the assay.
The assay of AChE was performed according to method described by Ellman et al. A kinetic profile of the enzyme activity was studied spectrophotometrically at 412 nm at an interval of 15 s. The assay for each sample was run in duplicate and each experiment was performed thrice. The specific activity of AChE is expressed in μmoles/min/mg of protein. The test substance (dissolved in DMSO) was incubated with enzyme source in concentration of 100 μg/1 ml of reaction mixture for 30 min at 37° C. prior to obtain kinetic profile of AChE activity. The AChE inhibitory activity was calculated on the basis of % decrease change from control values.
Protein was estimated in the brain samples by modified Lowry's method. Bovine serum albumin (BSA) was used as standard in the concentration of 1 mg/ml. was estimated in the range of 0.01-0.1 mg/ml. […]

[3] = system: Scopolamine induced deficit in passive avoidance test in mice; assay: Single trial passive avoidance test, scopolamine induced deficit (in vivo); settings: po + scopolamine, % increase in TLT of 2nd trial from TLT of 1st trial
[4] = 0.5 h; 100 μg/1 ml of reaction mixture, incubated 30 min at 37° C., rat brain enzyme source; read-out: In Vitro %) (AChE inhibitory activity, % decrease change from control)

SMILES	In Vivo (passive avoidance test, significance of TLT increase) [1]	inhibition at 100 µg/mL [2, 4] [%]	also measured
CC(C)(O)[C@@H]1Cc2cc3ccc(=O)oc3cc2O1 (racemic) [(±) Marmesin]	Significant activity (P < 0.01)	–	In Vitro %) (AChE inhibitory activity, % decrease change from control) ([2]; 100 μg/1 ml of reaction mixture, incubated 30 min at 37° C., rat brain enzyme source): 23.91%
CC(=O)Oc1ccc2c(C)cc(=O)oc2c1OC(C)=O [4-Methyl-7,8-diacetyloxycoumarin]	No significant activity	24	–
Cc1cc(=O)oc2c(OCc3ccccc3)c(OCc3ccccc3)ccc12 [4-Methyl-7,8-dibenzyloxycoumarin]	No significant activity	24.1	–
Cc1cc(=O)oc2c(O)c(O)ccc12 [4-Methyl-7,8-dihydroxycoumarin]	No significant activity	14.1	–
COc1ccc2c(C)cc(=O)oc2c1OC [4-Methyl-7,8-dimethoxycoumarin]	No significant activity	14.2	–
CC(=O)Oc1ccc2c(C)cc(=O)oc2c1 [4-Methyl-7-acetyloxycoumarin]	Significant activity (P < 0.01)	23.9	TLT on 2nd trial as compared to 1st trial after scopolamine [1]: significant increase in TLT on 2nd trial
Cc1cc(=O)oc2cc(O)ccc12 [4-Methyl-7-hydroxycoumarin]	High significant activity	17.4	% Memory retention ([3]; AP20am samples 50 mg/kg): 376%; TLT on 2nd trial as compared to 1st trial after scopolamine [1]: significant increase in TLT on 2nd trial; effectiveness in passive avoidance test (in vivo), in words [1]: most effective
COc1ccc2c(C)cc(=O)oc2c1 [4-Methyl-7-methoxycoumarin]	No significant activity	48.9	effectiveness in passive avoidance test (in vivo), in words [1]: effective
CC(=O)Oc1ccc2ccc(=O)oc2c1 [7-Acetyloxycoumarin]	High significant activity	39.1	% Memory retention ([3]; AP20am samples 50 mg/kg): 321%; TLT on 2nd trial as compared to 1st trial after scopolamine [1]: significant increase in TLT on 2nd trial; effectiveness in passive avoidance test (in vivo), in words [1]: most effective; also recorded: effective
C=CCOc1ccc2ccc(=O)oc2c1 [7-Allyloxycoumarin]	Significant activity (P < 0.05)	–	TLT on 2nd trial as compared to 1st trial after scopolamine [1]: significant increase in TLT on 2nd trial
O=c1ccc2ccc(OCc3ccccc3)cc2o1 [7-Benzyloxycoumarin]	Significant activity	–	TLT on 2nd trial as compared to 1st trial after scopolamine [1]: significant increase in TLT on 2nd trial
C#CC(C)(C)c1ccc2ccc(=O)oc2c1 [7-Dimethylpropargylcoumarin]	No significant activity	–	–
CC(C)=CCc1cc2ccc(=O)oc2cc1O [7-Hydroxy-6-prenylcoumarin]	No significant activity	–	inhibition at 100 µg/mL ([2]; 0.5 h, read-out: In Vitro %) (AChE inhibitory activity, % decrease change from control)): 42.2%
CC(C)=CCc1c(O)ccc2ccc(=O)oc12 [7-Hydroxy-8-prenylcoumarin]	No significant activity	–	–
O=c1ccc2ccc(O)cc2o1 [7-Hydroxycoumarin]	No significant activity	–	–
COc1ccc2ccc(=O)oc2c1 [7-Methoxycoumarin]	High significant activity	25.2	% Memory retention ([3]; AP20am samples 50 mg/kg): 295%; TLT on 2nd trial as compared to 1st trial after scopolamine [1]: significant increase in TLT on 2nd trial; effectiveness in passive avoidance test (in vivo), in words [1]: most effective
CC(C)=CCOc1ccc2ccc(=O)oc2c1 [7-Prenyloxycoumarin]	No significant activity	–	–
CC(C)(O)[C@@H]1Cc2c(ccc3ccc(=O)oc23)O1 [Columbianetin]	No significant activity	13.9	–
CC1(C)CCc2cc3ccc(=O)oc3cc2O1 [Dihydroxanthyletin]	No significant activity	37.8	–
COc1cc2c(cc1OC)C(=O)C(CC1CCN(Cc3ccccc3)CC1)C2 (centres unmarked) [Donepezil, reference compound]	–	–	% Memory retention ([3]; Standard drug Donepezil 10 mg/kg): 288%
CC1(C)C=Cc2c(ccc3ccc(=O)oc23)O1 [Seselin]	No significant activity	–	–
